# Assay results taken from ChEMBL document CHEMBL5505976, “Identification of the exosomal PD-L1 inhibitor to promote the PD-1 targeting therapy of gastric cancer” (Eur J Med Chem, 2024).
# Activity calls are given as the source filed them. The rule behind the calls is not given here.
# What was measured:
# [1] = molecular target: Programmed cell death 1 ligand 1 (Homo sapiens, UniProt Q9NZQ7); assay: Inhibition of exosomal PD-L1 (unknown origin) generation preincubated with compound for 24 hrs followed by strep-d2 acceptor bead addition and measured after 30 mins by HTRF assay
# Chain of Programmed cell death 1 ligand 1 (Q9NZQ7 whole entry): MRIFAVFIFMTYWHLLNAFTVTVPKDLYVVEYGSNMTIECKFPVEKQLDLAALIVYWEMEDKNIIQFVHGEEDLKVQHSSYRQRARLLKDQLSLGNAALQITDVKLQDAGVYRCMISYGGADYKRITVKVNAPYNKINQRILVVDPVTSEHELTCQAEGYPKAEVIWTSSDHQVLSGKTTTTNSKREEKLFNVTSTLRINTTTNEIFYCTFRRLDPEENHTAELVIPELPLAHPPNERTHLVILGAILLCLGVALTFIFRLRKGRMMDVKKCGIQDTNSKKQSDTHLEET
# [2] = Toxicity in female mouse xenografted with mouse MFC cells transfected with OVA assessed as kidney damage at 25 mg/kg, po by H and E staining based analysis; assay type: organism-based; details: in vivo
# [3] = tested on: T-cell; assay: Cytotoxicity against mouse T cell at 100 uM measured for 24 hrs by MTS assay; assay type: toxicity, cell-based
# [4] = Toxicity in female mouse xenografted with mouse MFC cells transfected with OVA assessed as spleen damage at 25 mg/kg, po by H and E staining based analysis; assay type: organism-based; details: in vivo
# [5] = tested on: MFC; assay: Antiproliferative activity against mouse MFC cells transfected with OVA assessed as inhibition of cell proliferation measured for 48 hrs in presence of anti-mouse PD-1 antibody by MTS assay; assay type: functional, cell-based
# [6] = Half life in Sprague-Dawley rat at 25 mg/kg, po measured upto 24 hrs by LC-MS/MS analysis; assay type: ADME, organism-based; details: in vivo
# [7] = Cmax in Sprague-Dawley rat at 25 mg/kg, po measured upto 24 hrs by LC-MS/MS analysis; assay type: ADME, organism-based; details: in vivo
# [8] = tested on: MGC-803; assay: Inhibition of exosomal PD-L1 expression in human MGC-803 cells incubated for 24 hrs by Western blot analysis; assay type: functional, cell-based; details: dose <= 400.0 nM
# [9] = tested on: MFC; assay: Antitumor activity against mouse MFC cells implanted in female mouse assessed as tumor growth inhibition at 25 mg/kg, po; details: read-out: TGI
# [10] = Clearance in Sprague-Dawley rat at 25 mg/kg, po measured upto 24 hrs by LC-MS/MS analysis; assay type: ADME, organism-based; details: in vivo
# [11] = tested on: MGC-803; assay: Effect on exosomes generation in human MGC-803 cells at 400 nM measured for 24 hrs; assay type: functional, cell-based
# [12] = Tmax in Sprague-Dawley rat at 25 mg/kg, po measured upto 24 hrs by LC-MS/MS analysis; assay type: ADME, organism-based; details: in vivo
# [13] = tested on: MGC-803; assay: Sensitization of human MGC-803 cells to CD8-positive T cell assessed as increase in IFN-gamma level by ELISA analysis; assay type: functional, cell-based; details: dose <= 400.0 nM
# [14] = Toxicity in female mouse xenografted with mouse MFC cells transfected with OVA assessed as heart damage at 25 mg/kg, po by H and E staining based analysis; assay type: organism-based; details: in vivo
# [15] = Toxicity in female mouse assessed as effect on body weight at 25 mg/kg, po in presence of anti-mouse PD-1 antibody; assay type: organism-based; details: in vivo
# [16] = tested on: MFC; assay: Antitumor activity against mouse MFC cells implanted in female mouse assessed as reduction in tumor weight at 25 mg/kg, po in presence of anti-mouse PD-1; assay type: functional, organism-based
# [17] = tested on: MFC; assay: Antitumor activity against mouse MFC cells transfected with OVA implanted in female mouse assessed as increase in IL-2 level in tumor at 25 mg/kg, po in presence of PD-1 antibody by ELISA analysis; assay type: functional, organism-based
# [18] = tested on: MFC; assay: Antitumor activity against mouse MFC cells implanted in female mouse assessed as tumor growth inhibition at 25 mg/kg, po in presence of anti-mouse PD-1; details: read-out: TGI
# [19] = tested on: MGC-803; assay: Sensitization of human MGC-803 cells to CD8-positive T cell assessed as increase in activated T cells at 400 nM measured for 48 hrs in presence of recombinant PD-1 by MTS assay; assay type: functional, cell-based
# [20] = tested on: PDC-GC-239; assay: Sensitization of human poor differentiated gastric cancer PDC-GC-239 cells to CD8-positive T cell assessed as increase in activated T cells measured for 48 hrs by MTS assay; assay type: functional, cell-based
# [21] = AUC (0 to infinity) in Sprague-Dawley rat at 25 mg/kg, po measured upto 24 hrs by LC-MS/MS analysis; assay type: ADME, organism-based; details: in vivo
# [22] = tested on: MFC; assay: Antitumor activity against mouse MFC cells transfected with OVA implanted in female mouse assessed as increase in TNF-alpha level in tumor at 25 mg/kg, po in presence of PD-1 antibody by ELISA analysis; assay type: functional, organism-based
# [23] = tested on: MGC-803; assay: Sensitization of human MGC-803 cells to CD8-positive T cell assessed as increase in activated T cells measured for 48 hrs in presence of Nivolumab by MTS assay; assay type: functional, cell-based
# [24] = tested on: PDC-GC-919; assay: Sensitization of human poor differentiated gastric cancer PDC-GC-919 cells to CD8-positive T cell assessed as increase in activated T cells measured for 48 hrs by MTS assay; assay type: functional, cell-based
# [25] = Toxicity in female mouse xenografted with mouse MFC cells transfected with OVA assessed as liver damage at 25 mg/kg, po by H and E staining based analysis; assay type: organism-based; details: in vivo
# [26] = tested on: MGC-803; assay: Sensitization of human MGC-803 cells to CD8-positive T cell assessed as increase in TNF-alpha level by ELISA analysis; assay type: functional, cell-based; details: dose <= 400.0 nM
# [27] = tested on: MFC; assay: Antitumor activity against mouse MFC cells transfected with OVA implanted in female mouse assessed as increase in IFN-gamma level in tumor at 25 mg/kg, po in presence of PD-1 antibody by ELISA analysis; assay type: functional, organism-based
# [28] = Toxicity in female mouse xenografted with mouse MFC cells transfected with OVA assessed as lung damage at 25 mg/kg, po by H and E staining based analysis; assay type: organism-based; details: in vivo
# [29] = tested on: MGC-803; assay: Sensitization of human MGC-803 cells to CD8-positive T cell assessed as increase in IL-2 level by ELISA analysis; assay type: functional, cell-based; details: dose <= 400.0 nM
# [30] = tested on: MFC; assay: Antitumor activity against mouse MFC cells transfected with OVA implanted in female mouse assessed as decrease in accumulation of exosomal PD-L1 in tumor at 25 mg/kg, po; assay type: functional, organism-based
# [31] = tested on: MFC; assay: Antitumor activity against mouse MFC cells transfected with OVA implanted in female mouse assessed as decrease in accumulation of exosomal PD-L1 in tumor at 25 mg/kg, po in presence of anti-PD-1 antibody; assay type: functional, organism-based
smiles,measurement,setting,value
CC(C)(C)OC(=O)Nc1ccc(-c2ccc(C(=O)NCCN3CCOCC3)cc2)cc1,IC50,[1],681 nM
Nc1ccc(-c2ccc(C(=O)NCCN3CCOCC3)cc2)cc1,IC50,[1],336 nM
COc1ccc(-c2ccc(C(=O)NCCN3CCOCC3)cc2)cn1,IC50,[1],669 nM
O=C(NCCN1CCOCC1)c1ccc(-c2ccc3c(c2)OCCO3)cc1,IC50,[1],153 nM
O=C(NCCN1CCOCC1)c1ccc(-c2ccc3cc4ccccc4cc3c2)cc1,IC50,[1],> 10000 nM
O=C(NCCN1CCOCC1)c1ccc(-c2ccc(C(F)(F)F)cc2)cc1,IC50,[1],6820 nM
O=C(NCCN1CCOCC1)c1ccc(-c2ccc(F)cc2)cc1,IC50,[1],2240 nM
N#Cc1ccc(-c2ccc(C(=O)NCCN3CCOCC3)cc2)cc1,IC50,[1],498 nM
O=C(NCCN1CCOCC1)c1ccc(-c2ccccc2)cc1,IC50,[1],1540 nM
O=C(NCCN1CCOCC1)c1ccc(-c2cc3ccccc3s2)cc1,IC50,[1],648 nM
O=C(NCCN1CCOCC1)c1ccc(-c2cnc3[nH]ccc3c2)cc1,Activity,[2],Non-Toxic
same,Activity,[3],Non-Toxic
same,Activity,[4],Non-Toxic
same,Activity,[5],Active
same,IC50,[1],108 nM
same,half-life,[6],2.73 h
same,Cmax,[7],1210 ng/mL
same,inhibition,[8],Dose-Dependent Effect
same,inhibition in vivo at 25 mg/kg,[9],32%
same,CL,[10],587.3 mL/min/kg
same,Activity,[11],Active
same,Tmax,[12],0.25 h
same,Activity,[13],Dose-Dependent Effect
same,Activity,[14],Non-Toxic
same,Activity,[15],Non-Toxic
same,Activity,[16],Active
same,Activity,[17],Active
same,inhibition in vivo at 25 mg/kg,[18],69%
same,Activity,[19],Active
same,Activity,[20],Active
same,AUC,[21],1668.51 ng·h/mL
same,Activity,[22],Active
same,Activity,[23],Active
same,Activity,[24],Active
same,Activity,[25],Non-Toxic
same,Activity,[26],Dose-Dependent Effect
same,Activity,[27],Active
same,Activity,[28],Non-Toxic
same,Activity,[29],Dose-Dependent Effect
same,Activity,[30],Active
same,Activity,[31],Active
O=C(NCCN1CCOCC1)c1ccc(Cl)cc1 [MOCLOBEMIDE],IC50,[1],3860 nM
O=C(NCCN1CCOCC1)c1ccc(-c2ccn(C3CCCCO3)n2)cc1 (centres undefined),IC50,[1],2590 nM
CCOC(C)n1cc(-c2ccc(C(=O)NCCN3CCOCC3)cc2)cn1 (centres undefined),IC50,[1],753 nM
Cn1nccc1-c1ccc(C(=O)NCCN2CCOCC2)cc1,IC50,[1],286 nM
Cn1ccc2cc(-c3ccc(C(=O)NCCN4CCOCC4)cc3)ccc21,IC50,[1],217 nM
COc1ncc(-c2ccc(C(=O)NCCN3CCOCC3)cc2)cn1,IC50,[1],461 nM
O=C(NCCN1CCOCC1)c1ccc(-c2cncnc2)cc1,IC50,[1],571 nM
COc1ccc(-c2ccc(C(=O)NCCN3CCOCC3)cc2)cc1F,IC50,[1],623 nM
